US8852601B2, “Method of stimulating growth and resistance to diseases of aquatic organisms” (Centro de Ingenieria Genetica y Biotecnologia, priority 2002, dated 2014)
Marks after values point to notes of the source that are not given here. Non-standard residues stand in square brackets, D forms with d. No end group written: not given here.

Assays:
tilapia [1] = assay: Humidity and protein concentration in muscle of tilapia treated by immersion; assay type: in vivo, Oreochromis aureus
Procedure: (§1) Tilapias (Oreochromis aureus) of 1.5 g of mean weigh were treated by immersion with two different doses of GHRP-6 (10 μg/100 ml and 100 μg/100 ml). A similar control group was treated with physiological solution.
(§2) In the experiment was measured the weigh (Table 1), biochemical blood parameters (Table 2), number of parasite in gill (Trichodinicos (Table 3) y Helmintos mongeneos (Table 4)) and humidity and protein concentration in muscle
(§3) Fifteen animals per group (3×) with mean weigh of 1 g were selected for the assay. In 9 tank of 40 liters were developed the experiment. One a week application was done for 45 days.
(§4) • Group I 10 μg/100 ml (Treatment 1) • Group II 100 μg/100 ml (Treatment 2) • Group III Control (Physiological solution)

[2] = test system: larvae shrimp Litopeneaus schmitti; assay: Shrimp larvae treated by immersion in production conditions; assay type: in vivo, Litopenaeus schmitti; details: production condition, vs non-treated group
Description: FIG. 8. Growth rate of larvae shrimp Litopeneaus schmitti in production conditions treated with GHRP-6 by immersion. The experiment was follow by six week. ***t-test p<0.001. Bars indicate standard error
In production condition the survival rate of the larvae was increased in 20% in the group treated with the GHRP-6 in comparison with the non-treated group. […] On the other hand the uniformity of the animals was higher in the group treated with the hexapeptide and the variation coefficient was lower in weigh and size (FIG. 8).

Helmintos monogeneos = assay: Invasion intensity and extension of Helmintos monogeneos in the gill of tilapia treated by immersion; assay type: in vivo; details: for I: Invasion intensity: in the gill per fish
Procedure: as §1, §2, §3, §4

juvenile tilapia [3] = assay: Growth promoting activity in juvenile tilapia, oral intubation (non encapsulated and encapsulated peptide); assay type: in vivo, Oreochromis aureus
Procedure: (§5) Body weight in grams was measured weekly. In all the experiments the animals were labeled with microchips (Stoelting Co. Wood Dale, U.S.A.).
GHRP-6 peptide was diluted in phosphate buffered saline (PBS) and administered through a plastic tube to the pharyngeal cavity to a group of seven male tilapia with average body weight 87.22±14.1 g. PBS was delivered to the control group (n=7, all male tilapia) with average weight 89.22±7.66 g. The treatment was done twice a week during three weeks at 0.1 μg/gbw. Body weight in grams was measured weekly. (FIG. 3)
For the encapsulation of peptide the capsules were obtained as previously reported by Knorr et al., 1988; using chitosan and alginic acid encapsulated peptide. The hexapeptide GHRP-6 was administered through a plastic tube to the pharyngeal cavity to seven male tilapia with average body weight 89.09±8.38 g. Polymer beads without peptide were administered to seven male tilapia with average weight 89.86±13.54 g as a control group. The treatment was performed twice a week at 0.14 μg/gbw. (FIG. 4)

tilapia IGF mRNA = assay: Hepatic IGF mRNA levels in tilapia injected with GHRP-6 (Northern blot); assay type: in vivo; details: 0.1 μg/gbw
Procedure: (§6) Fifteen tilapias with average weight 71±28 g were used for the experiment. The GHRP-6 was injected with hexapeptide at 0.1 μg/gbw. The liver and blood samples were drawn before the treatment and 15 min, 30 min, 1 h and 6 h after the peptide injection (three animals per group). The serum and liver sample were collected and stored at −70° C. until used for total RNA isolation and Northern blot analysis. A serum sample was also taken before the treatment in all animals.
Northern blot analysis was used to measure the relative IGF mRNA levels in tilapia injected with the peptide. Total RNA was purified from liver samples as described by Chomczynski and Sacchi (Chomczynski P, Sacchi N. Single step method of RNA isolation by acid guanidium thiocyanate-phenol-chloroform extraction. Anal Biochem 1987; 162:156-59). Twenty μg of RNA were fractionated on 1% formaldehyde agarose gels and transferred to nylon membranes (Hybond N, Amersham UK) and hybridized with a tilapia IGF-I cDNA probe and subsequently rehybridized with a human gliceraldehyde 3 phosphate dehydrogenase cDNA (GAPDH, kindly given by Dr. Bryan Williams, Cleveland Foundation, OH, USA) to normalize the signals. Hybridization signals were quantified by digital image processing of scanned gels with a Hewlett Packard Scanjet Plus scanner. Images were processed with the Bandleader computer program. […]

tilapia [4] = assay: Weigh of tilapia treated with GHRP-6 by immersion; assay type: in vivo, Oreochromis aureus; details: for Mean weigh ± DS: once a week for 45 days
Procedure: as §1, §2, §3, §4

juvenile tilapia [5] = assay: Growth promoting activity in juvenile tilapia, intraperitoneal injection; assay type: in vivo, Oreochromis aureus; details: intraperitoneal 0.1 μg/gbw twice a week, three weeks; P<0.05
Procedure: Juvenile hybrid tilapia (Oreochromis aureus) supplied by the Aquadique Aquaculture Station (Havana, Cuba) were acclimated in a 500 litters tank with re-circulating freshwater at 25° C. with constant photoperiod (14 hours light and 10 hours darkness) and fed with commercially prepared pellets (CENPALAB, Havana, Cuba). Daily rations equivalent to 5% of body weight were administered twice a day until they were used in the experiments.
GHRP-6 (BACHEM, Switzerland) was diluted in PBS and injected twice a week during three weeks at 0.1 μg per gram of fish body weight (gbw). The peptide was administered to a group of eight male tilapia with average body weight of 61±14.3 g and seven male tilapia with average body weight of 61.41±29.67 g were injected with PBS as a control group.
as §5

protozoo Trichodina sp. = assay: Invasion intensity and extension of Trichodina sp. in tilapia treated by immersion; assay type: in vivo
Procedure: as §1, §2, §3, §4

serum GH = assay: Serum GH levels in tilapia injected with GHRP-6 (ELISA); assay type: in vivo; details: 15 min after intraperitoneal injection, 0.1 μg/gbw
Procedure: as §6
Serum GH levels were determined by ELISA using two monoclonal antibodies against tilapia GH (Muñoz et al, in preparation).

[6] = test system: shrimp Litopenaeus schmitti larvae; assay: Growth promoting activity in shrimp larvae treated by immersion; assay type: in vivo
Procedure: Three different doses of GHRP-6 were applied by immersion to groups or shrimp larvae. The application was made each three days. Four applications were made for each group, including one control group receiving bovine serum albumin (BSA). The treatment was made per 1 hour to a concentration of GHRP-6 per liter of seawater as follow: • Group 1: 0.001 mg/L • Group 2: 0.01 mg/L • Group 3: 0.1 mg/L • Group 4: 1 mg of BSA/L

[7] = Grupo I, immersion 10 μg/100 mL
[8] = Grupo II, immersion 100 μg/100 mL
[9] = comparison II-III (100 μg/100 mL vs saline), significant
[10] = comparison III-I (saline vs 10 μg/100 mL)
[11] = comparison III-I (saline vs 10 μg/100 mL), significant
[12] = 0.1 mg/L immersion, statistically significant
[13] = 0.1 mg/L, four 1 hour immersions, each three days, vs BSA control

## His-D-Trp-Ala-Trp-D-Phe-Lys-NH2 (H[dW]AW[dF]K-NH2) [GHRP-6, known GH releasing hexapeptide (GH secretagogue), bought from BACHEM]
Tilapia [1]; [7]
  Mean humidity ± SD in muscle: 82.96 ± 3.63%
Tilapia [1]; [8]
  Mean humidity ± SD in muscle: 83.5 ± 3.31%
Tilapia [1]; comparison I-II
  Statistically difference, humidity in muscle: (0.791)
Tilapia [1]; comparison I-II, significant
  Statistically difference, protein concentration: (1.160)*
Tilapia [1]; [9]
  Statistically difference, humidity in muscle: (2.666)*
  Statistically difference, protein concentration: (1.38)*
Tilapia [1]; [10]
  Statistically difference, humidity in muscle: (3.458)
Tilapia [1]; [11]
  Statistically difference, protein concentration: (2.64)*
[2]
  increase of size: 37%
  increase of survival rate of the larvae: 20%
  increase of weigh: 115%
  uniformity of the animals: higher
  variation coefficient in weigh and size: lower
Helmintos monogeneos; [7]
  E: Invasion extension: 34.7%
  I: Invasion intensity: 0.39
Helmintos monogeneos; [8]
  E: Invasion extension: 50%
  I: Invasion intensity: 0.66
Helmintos monogeneos; comparison I-II
  Statistically difference, Helmintos monogeneos invasion: (0.304)
Helmintos monogeneos; comparison II-III (100 μg/100 mL vs saline)
  Statistically difference, Helmintos monogeneos invasion: (0.521)
Helmintos monogeneos; [11]
  Statistically difference, Helmintos monogeneos invasion: (0.826)*
Juvenile tilapia [3]; comparison between both oral treatments, P<0.05
  body weight gain, encapsulated vs non encapsulated orally intubated treatment: higher body weight gain
Juvenile tilapia [3]; orally intubated encapsulated peptide
  body weight to the end of the treatment vs control: statistically differences in the body weight
Tilapia IGF mRNA; 30 min after intraperitoneal injection
  level of hepatic IGF mRNA: increased significantly
Tilapia IGF mRNA; six hours after intraperitoneal injection
  level of hepatic IGF mRNA: backing to the normal value
Tilapia [4]; [7]
  Mean weigh ± DS: 4.56 ± 1.07 g
Tilapia [4]; [8]
  Mean weigh ± DS: 4.54 ± 1.38 g
Tilapia [4]; comparison I-II (10 vs 100 μg/100 mL)
  Statistically difference, mean weigh: 0.01454
Tilapia [4]; [9]
  Statistically difference, mean weigh: 1.072*
Tilapia [4]; [11]
  Statistically difference, mean weigh: 1.086*
Juvenile tilapia [5]
  growth (increase in growth rate) vs control: significantly stimulated growth
Protozoo Trichodina sp.; [7]
  E: Invasion extension: 100%
  I: Invasion intensity: 7.73
Protozoo Trichodina sp.; [8]
  E: Invasion extension: 84.6%
  I: Invasion intensity: 2.80
Protozoo Trichodina sp.; comparison I-II
  Statistically difference, Trichodina sp. invasion: (4.42)
Protozoo Trichodina sp.; [9]
  Statistically difference, Trichodina sp. invasion: (5.84)*
Protozoo Trichodina sp.; [10]
  Statistically difference, Trichodina sp. invasion: (1.42)
Serum GH
  serum GH levels: increased
[6]; [12]
  number of bone rostral: increase
  number of gill ramifications: increase
[6]; [13]
  increase of mean size: 26%
  increase of mean weigh: 153%
[6]; all treated animals vs control
  relation Protein/DNA in muscle: increased
  relation RNA/DNA in muscle: increased
  water content in the muscle: lower water content in the muscle
